Assay results published in PMC2999418, “Biological Activity and Binding Site Characteristics of the PA1b Entomotoxin on Insects from Different Orders” (Journal of Insect Science, 2007).

Legend:
[1] = test system: Harmonia axyridis; assay: Ladybeetle development and survival on artificial diet supplemented with toxin; assay type: in vivo; settings: 250 µg/g of food
Method: The ladybeetle Harmonia axyridis (Coleoptera) was grown on a pork liver-based artificial diet (Specty et al., unpublished results), and tests were performed using a diet supplemented with the toxin. The development was monitored from L3 up to the pupal stage.
(§1) All toxicity assays were carried out using a mixture of PA1b isoforms (98% purity by HPLC). All tests were performed on at least 30 insects for assays and for control test (without toxin), except for the three aphid species (50 insects) and for Trichogramma (more than 300 eggs by assays). When adults were used, the insects were synchronized at the imaginal molt. The statistical analyses were performed using the JMP software (SAS, Grégy-sur-Yerres FRA).
Figure 1. Effects of PA1b on the lady beetle H. axyridis. Tests were done with artificial diet supplemented with the toxin (250 µg/g), and the development of the insects was monitored daily. First bar, control insects; second bar, tested insects. P, Pupae; pP, Pre-pupae; L4,4th instar larvae; L3, 3rd instar larvae.

[2] = test system: Tribolium castaneum; assay: Red flour beetle adult toxicity test, toxin mixed into diet; assay type: in vivo; settings: 1000 µg per g of food, feeding for 15 days
Method: The red flour beetle Tribolium castaneum (Coleoptera), was provided by François Bonneton (Centre de Génétique Moléculaire Cellulaire, Lyon, France). Tests were performed on adults by mixing the toxin into the diet (wheat flour 95%, yeast extract 5%).
as §1

[3] = test system: Trichogramma pretiosum; assay: Trichogramma development from eggs to adults on artificial diet with toxin; assay type: in vivo; settings: PA1b added to artificial diet; no difference in developmental times compared to control
Method: Trichogramma pretiosium. T191 (Hymenoptera) were grown using the artificial diet described in Grenier et al. ([1998]). The toxin was incorporated into the diet, and the development of insects was monitored from eggs to adults.
as §1

[4] = test system: M. brassicae protein extracts; assay: PA1b degradation assay with total insect protein extract; assay type: in vitro ADME, Mamestra brassicae; settings: 200 µg M. brassicae (L3) total protein extract, 10 µg PA1b, pH 3 to 9, 30°C, one night incubation; C18 HPLC; data not shown
Method: The isolation of membrane proteins for binding studies was performed as described by Gressent et al. ([2003]). For PA1b degradation tests, insect extracts were prepared as follows, 1 g of insects were ground with a mortar and pestle in liquid nitrogen. The resulting powder was resuspended in 2 ml of extraction buffer (20 mM Tris-HCl pH 8; 0.25 M sucrose; 2 mM MgCl2). The slurry was centrifuged for 2 min at 1000 g, and the supernatant was stored at -2O°C until required. All the operations were performed at 4°C.
PA1b degradation assays were performed using 10 µg of peptide (PA1b isoform mixture) in a final volume of 100 µl buffer. […]
(§2) For all assays, after a one night incubation, 150 µl of methanol were added to the mixture and incubated for 60 min at 4°C. […] PA1b peptide isoforms were detected by their absorbance at 210 nm, quantified by the measurement of the peak area and with reference to known quantities of pure peptide isoform used as standards.

[5] = test system: gut extracts from M. brassicae; assay type: in vitro ADME, Mamestra brassicae; settings: 400 µg M. brassicae gut proteins per assay, 10 µg PA1b, pH 3 to 9, 30°C, one night incubation; C18 HPLC; data not shown
Method: PA1b degradation assays were performed using 10 µg of peptide (PA1b isoform mixture) in a final volume of 100 µl buffer. Assays with commercially (SIGMA, www.sigmaaldrich.com) available enzymes were performed in Glycine-NaOH buffer (20 mM pH 9) at 3O°C for proteinase K (E.C. 3.4.21.64), Tris-HCl buffer (20 mM pH 7.5) + EDTA 10 mM at 37°C for pronase E type XIV, MES-NaOH buffer (20 mM pH 6.2) at 25°C for papain (E.C. 3.4.22.2), Tris-HCl buffer (20 mM pH 7.8) at 25°C for chymotrypsin (E.C. 3.4.21.1), and Tris-HCl buffer (20 mM pH 7.6) at 25°C for trypsin (E.C. 3.4.21.4). Assays were done with 10 µg of each enzyme, and control assays were performed with 10 µg of enzymes denaturated by 10 min boiling. Assays with insect extracts were carried out in 20 mM buffers from pH 3 to 9 (Glycine-HCl, pH 3; sodium acetate pH 4-5; MES-NaOH pH 6; Tris-HCl pH 7-8; Glycine NaOH pH 9) at 3O°C. […]
as §2, with “standards. […]” for “standards.”

[6] = target: PA1b binding protein on membrane extracts; settings: ref Gressent et al (2003), cited from earlier work
Description: Table 1. Affinity (Kd) and relative abundance (Bmax) of the PA1b binding protein on membrane extracts from different insect species and strains. | column: Kd (nM); Bmax (pmol/mg of protein) || Data obtained from competition experiments, using the purified […] isoform as competitor, are shown in Table 1. PA1b binding activity was present in all insect species, except for the resistant weevil strains and the pea specific pest Bruchus pisorum, regardless of the sensitivity or insensitivity of these insects to PA1b toxicity, as evaluated from our insect bioassays. […] The relative abundance of the binding sites was also slight ...

[7] = test system: midgut extracts from sensitive or resistant S. oryzae; settings: ref Delobel and Rahbé, personnal communication; cited from earlier work
Description: Stating that the binding activity is widely present, while the toxicity is not, directly implies that other factors strongly influence the toxin toxicity. Pre-binding effects, such as toxin stability in the insect digestive tract, have been commonly described, either for bacterial toxins ([Keller et al. 1996]) or enzyme inhibitors ([Girard et al. 1998]). Although the structural features of PA1b, such as its cystine-knot core ([Jouvensal et al. 2003]), are known to confer high thermal, chemical and proteolytic stability ([Delobel et al. 1998]) the latter point was investigated using commercial ...

## ASCNGVCSPFEMPPCGTSACRCIPVGLVIGYCR NPSG (bicyclic or more) [PA1b, plant peptide of 37 amino acids purified from pea (Pisum sativum) seeds; entomotoxic cystine-knot peptide with three disulfide bonds]
[1]; by day 12
  share of survivors that reached the pupal stage: half
[1]; started on L3 larvae, after three days (all control insects reached L4)
  insects that reached the L4 stage: 30%
[1]; started on L3 larvae, by day 12 (control 75%)
  survival: 15%
[2]
  effects on adults: no effects were detectable
  survival of adults: all insects survived
[3]
  growth and development from eggs to adults: normal growth
[4]
  recovered PA1b after incubation with insect proteins versus heat-denatured control: without any difference between control and test assays
[5]
  recovery of PA1b after incubation with native or heat inactivated gut proteins: no difference
[6]; S. oryzae resistant strains Mex1, GV, China, ISOR3, membrane extracts
  Kd / binding: no binding detectable
[6]; S. oryzae strains WAA42, Benin, Bouriz, membrane extracts
  Kd: 2 to 4.5 nM
[7]
  activity of midgut extracts on PA1b: do not show any activities on PA1b
